Biological target: Metabotropic glutamate receptor 8 (Rattus norvegicus, UniProt P70579)
Sequence (P70579 whole entry): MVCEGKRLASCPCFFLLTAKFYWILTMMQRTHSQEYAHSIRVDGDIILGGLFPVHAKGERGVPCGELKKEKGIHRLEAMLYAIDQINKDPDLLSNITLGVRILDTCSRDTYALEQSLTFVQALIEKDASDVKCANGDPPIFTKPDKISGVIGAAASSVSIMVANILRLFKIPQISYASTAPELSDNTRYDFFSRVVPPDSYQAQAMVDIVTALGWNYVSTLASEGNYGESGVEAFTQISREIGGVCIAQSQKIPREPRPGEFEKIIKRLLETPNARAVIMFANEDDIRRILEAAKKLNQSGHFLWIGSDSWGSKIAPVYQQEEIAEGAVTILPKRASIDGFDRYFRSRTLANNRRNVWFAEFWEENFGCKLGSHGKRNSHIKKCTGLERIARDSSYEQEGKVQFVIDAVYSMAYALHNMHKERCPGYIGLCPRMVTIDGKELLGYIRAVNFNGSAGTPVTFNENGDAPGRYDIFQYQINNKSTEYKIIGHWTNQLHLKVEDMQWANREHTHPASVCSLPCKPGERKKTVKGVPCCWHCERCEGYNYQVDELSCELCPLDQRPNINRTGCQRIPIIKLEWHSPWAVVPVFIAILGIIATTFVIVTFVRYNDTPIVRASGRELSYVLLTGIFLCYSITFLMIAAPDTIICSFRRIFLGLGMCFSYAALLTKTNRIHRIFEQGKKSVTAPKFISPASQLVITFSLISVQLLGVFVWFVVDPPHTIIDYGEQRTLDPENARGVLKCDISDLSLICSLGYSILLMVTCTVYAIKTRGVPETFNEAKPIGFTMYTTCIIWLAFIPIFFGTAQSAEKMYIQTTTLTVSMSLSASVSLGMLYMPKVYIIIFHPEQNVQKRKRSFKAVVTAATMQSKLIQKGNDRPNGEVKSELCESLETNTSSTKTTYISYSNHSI

Ki | Structure (SMILES)
1200 nM | N[C@@H](COP(=O)(O)O)C(=O)O
480 nM | CC(N)(C(=O)O)c1ccc(P(=O)(O)O)cc1 (configuration not stated)
1300 nM | NC(C(=O)O)c1ccc(P(=O)(O)O)cc1 (configuration not stated) [Amino-(4-phosphono-phenyl)-acetic acid(RS-PPG)]

More lines, now with the values behind:

Structure (SMILES) | Ki
C[C@@](N)(C(=O)O)c1ccc(C(=O)O)cc1 (racemic) | > 10000 nM
N[C@H](CCP(=O)(O)O)C(=O)O [D-AP4] | > 10000 nM
NC(CCC(=O)O)C(=O)O (configuration not stated) [glutamic acid dianion] | > 10000 nM
N[C@@H](CCP(=O)(O)O)C(=O)O [2-Amino-4-phosphono-butyric acid] | 2700 nM
